Test results published in article PMC8053501 (Diabetes, Metabolic Syndrome and Obesity: Targets and …, 2021).
“Also recorded” adds a separate entry of the source. Like-named read-outs stand apart in the source and are kept apart here.

Experiments:
[1] = system: diabetes mellitus patients; experiment: Acute kidney injury; type: in vivo, human; conditions: for Association with AKI, Unadjusted (95% CI) / Association with AKI, Adjusted (95% CI): metformin as reference; for Association with AKI, Adjusted (95% CI): multivariate; for Association with AKI compared to control drug metformin, in words: multivariate analysis; for Events During the 90 days (AKI): primary endpoint, first 90 days, patients above 55 years; for Total endpoint (AKI events): primary plus secondary endpoint; for Events at secondary end (AKI): secondary endpoint, after 90 days of hospital admission; for Total Percent (incidence rate of AKI at the end of the study): share of the 4966 total outcomes
[2] = for Drug concentration, time course: normal mice, oral gavage, 3mg/kg
[3] = in vivo; conditions: male, ICR, mouse, po
[4] = Endpoint Diagnosis with 1047 Outcome
[5] = Secondary Diagnosis with 3919 Outcomes
[6] = 3 mg/kg, t1/2, mouse, oral gavage, Kidney
[7] = 3 mg/kg, t1/2, mouse, oral gavage, Liver
[8] = 3 mg/kg, t1/2, mouse, oral gavage, Plasma

## COc1ccc2c(c1)c(CC(=O)O)c(C)n2C(=O)c1ccc(Cl)cc1 [Indomethacin, indomethacin]
[1]; [4]
  Association with AKI, Unadjusted (95% CI): 2.81 (2.32–2.94)
  Association with AKI, Adjusted (95% CI): 2.29 (2.05–2.65)
[1]; [5]
  Association with AKI, Unadjusted (95% CI): 2.45(2.09–2.54)
  Association with AKI, Adjusted (95% CI): 2.63 (2.41–2.72)
[1]
  Association with AKI compared to control drug metformin, in words: increased rate of AKI; also recorded: higher risk for AKI
  Events During the 90 days (AKI): 106
  Total endpoint (AKI events): 497
  Events at secondary end (AKI): 391
  Total Percent (incidence rate of AKI at the end of the study): 10.01%
[2]; mouse, tissue not separated
  Tmax determined from the drug concentration in kidney and plasma (and liver): 1 h
[2]; Kidney, 0h
  Drug concentration, time course: 0
[2]; Kidney, 3h
  Drug concentration, time course: 8240
[2]; Kidney, 6h
  Drug concentration, time course: 5200
[2]; Kidney, 9h
  Drug concentration, time course: 3880
[2]; Kidney, 12h
  Drug concentration, time course: 700
[2]; Kidney, 15h
  Drug concentration, time course: 250
[2]; Kidney, 18h
  Drug concentration, time course: 0
[2]; Kidney, 21h
  Drug concentration, time course: 0
[2]; Kidney, 24h
  Drug concentration, time course: 0
[2]; Liver, 0h
  Drug concentration, time course: 0
[2]; Liver, 3h
  Drug concentration, time course: 10,300
[2]; Liver, 6h
  Drug concentration, time course: 8700
[2]; Liver, 9h
  Drug concentration, time course: 5400
[2]; Liver, 12h
  Drug concentration, time course: 1200
[2]; Liver, 15h
  Drug concentration, time course: 150
[2]; Liver, 18h
  Drug concentration, time course: 0
[2]; Liver, 21h
  Drug concentration, time course: 0
[2]; Liver, 24h
  Drug concentration, time course: 0
[2]; Plasma, 0h
  Drug concentration, time course: 0
[2]; Plasma, 3h
  Drug concentration, time course: 300
[2]; Plasma, 6h
  Drug concentration, time course: 100
[2]; Plasma, 9h
  Drug concentration, time course: 50
[2]; Plasma, 12h
  Drug concentration, time course: 0
[2]; Plasma, 15h
  Drug concentration, time course: 0
[2]; Plasma, 18h
  Drug concentration, time course: 0
[2]; Plasma, 21h
  Drug concentration, time course: 0
[2]; Plasma, 24h
  Drug concentration, time course: 0
[3]; 3 mg/kg
  Tmax: 1 h
[3]; 3 mg/kg, oral gavage, Kidney
  Cmax: 10300 ng/mL
[3]; 3 mg/kg, oral gavage, Liver
  Cmax: 9650 ng/mL
[3]; 3 mg/kg, oral gavage, Plasma
  Cmax: 1170 ng/mL
[3]; [6]
  half-life: 3.8 h
[3]; [7]
  half-life: 3.1 h
[3]; [8]
  half-life: 2.7 h

## CC1(C)S[C@@H]2[C@H](NC(=O)[C@H](N)c3ccc(O)cc3)C(=O)N2[C@H]1C(=O)O [Amoxicillin, amoxicillin]
[1]; [4]
  Association with AKI, Unadjusted (95% CI): 1.73 (1.16–1.85)
  Association with AKI, Adjusted (95% CI): 1.36 (1.06–1.54)
[1]; [5]
  Association with AKI, Unadjusted (95% CI): 1.17 (0.88–1.43)
  Association with AKI, Adjusted (95% CI): 1.34 (1.07–1.82)
[1]
  Events During the 90 days (AKI): 48
  Total endpoint (AKI events): 293
  Events at secondary end (AKI): 245
  Total Percent (incidence rate of AKI at the end of the study): 5.9%
[2]; Kidney, 0h
  Drug concentration, time course: 9860
[2]; Kidney, 3h
  Drug concentration, time course: 7320
[2]; Kidney, 6h
  Drug concentration, time course: 5670
[2]; Kidney, 9h
  Drug concentration, time course: 2340
[2]; Kidney, 12h
  Drug concentration, time course: 730
[2]; Kidney, 15h
  Drug concentration, time course: 60
[2]; Kidney, 18h
  Drug concentration, time course: 0
[2]; Kidney, 21h
  Drug concentration, time course: 0
[2]; Kidney, 24h
  Drug concentration, time course: 0
[2]; Liver, 0h
  Drug concentration, time course: 12,110
[2]; Liver, 3h
  Drug concentration, time course: 8700
[2]; Liver, 6h
  Drug concentration, time course: 5470
[2]; Liver, 9h
  Drug concentration, time course: 1350
[2]; Liver, 12h
  Drug concentration, time course: 200
[2]; Liver, 15h
  Drug concentration, time course: 30
[2]; Liver, 18h
  Drug concentration, time course: 0
[2]; Liver, 21h
  Drug concentration, time course: 0
[2]; Liver, 24h
  Drug concentration, time course: 0
[2]; Plasma, 0h
  Drug concentration, time course: 370
[2]; Plasma, 3h
  Drug concentration, time course: 80
[2]; Plasma, 6h
  Drug concentration, time course: 45
[2]; Plasma, 9h
  Drug concentration, time course: 0
[2]; Plasma, 12h
  Drug concentration, time course: 0
[2]; Plasma, 15h
  Drug concentration, time course: 0
[2]; Plasma, 18h
  Drug concentration, time course: 0
[2]; Plasma, 21h
  Drug concentration, time course: 0
[2]; Plasma, 24h
  Drug concentration, time course: 0
[3]
  Tmax: 1 h
[3]; 3 mg/kg
  Tmax: 1 h
[3]; 3 mg/kg, oral gavage, Kidney
  Cmax: 4510 ng/mL
[3]; 3 mg/kg, oral gavage, Liver
  Cmax: 3980 ng/mL
[3]; 3 mg/kg, oral gavage, Plasma
  Cmax: 945 ng/mL
[3]; 3 mg/kg, t1/2
  half-life: 1.6 h

## Cc1ccc(-c2cc(C(F)(F)F)nn2-c2ccc(S(N)(=O)=O)cc2)cc1 [Celecoxib, celecoxib]
[1]; [4]
  Association with AKI, Unadjusted (95% CI): 2.95 (2.68–3.25)
  Association with AKI, Adjusted (95% CI): 2.32 (2.12–2.68)
[1]; [5]
  Association with AKI, Unadjusted (95% CI): 1.87 (1.64–2.43)
  Association with AKI, Adjusted (95% CI): 1.86 (1.53–2.77)
[1]
  Association with AKI compared to control drug metformin, in words: increased rate of AKI; also recorded: higher risk for AKI
  Events During the 90 days (AKI): 112
  Total endpoint (AKI events): 533
  Events at secondary end (AKI): 421
  Total Percent (incidence rate of AKI at the end of the study): 10.72%
[2]; Kidney, 0h
  Drug concentration, time course: 0
[2]; Kidney, 3h
  Drug concentration, time course: 10,340
[2]; Kidney, 6h
  Drug concentration, time course: 8900
[2]; Kidney, 9h
  Drug concentration, time course: 6480
[2]; Kidney, 12h
  Drug concentration, time course: 2100
[2]; Kidney, 15h
  Drug concentration, time course: 450
[2]; Kidney, 18h
  Drug concentration, time course: 0
[2]; Kidney, 21h
  Drug concentration, time course: 0
[2]; Kidney, 24h
  Drug concentration, time course: 0
[2]; Liver, 0h
  Drug concentration, time course: 0
[2]; Liver, 3h
  Drug concentration, time course: 13,200
[2]; Liver, 6h
  Drug concentration, time course: 9800
[2]; Liver, 9h
  Drug concentration, time course: 6250
[2]; Liver, 12h
  Drug concentration, time course: 2300
[2]; Liver, 15h
  Drug concentration, time course: 400
[2]; Liver, 18h
  Drug concentration, time course: 50
[2]; Liver, 21h
  Drug concentration, time course: 0
[2]; Liver, 24h
  Drug concentration, time course: 0
[2]; Plasma, 0h
  Drug concentration, time course: 0
[2]; Plasma, 3h
  Drug concentration, time course: 250
[2]; Plasma, 6h
  Drug concentration, time course: 50
[2]; Plasma, 9h
  Drug concentration, time course: 30
[2]; Plasma, 12h
  Drug concentration, time course: 0
[2]; Plasma, 15h
  Drug concentration, time course: 0
[2]; Plasma, 18h
  Drug concentration, time course: 0
[2]; Plasma, 21h
  Drug concentration, time course: 0
[2]; Plasma, 24h
  Drug concentration, time course: 0
[3]
  Tmax: 0.5 h
[3]; 3 mg/kg
  Tmax: 0.5 h
[3]; 3 mg/kg, oral gavage, Kidney
  Cmax: 12100 ng/mL
[3]; 3 mg/kg, oral gavage, Liver
  Cmax: 11700 ng/mL
[3]; 3 mg/kg, oral gavage, Plasma
  Cmax: 983 ng/mL
[3]; [6]
  half-life: 4.5 h
[3]; [7]
  half-life: 3.6 h
[3]; [8]
  half-life: 2.4 h
